Experimental data: patent US20170231911A1, “METHODS AND COMPOSITIONS FOR IMPROVING OUTCOMES OF LIPOSOMAL CHEMOTHERAPY” (Merrimack Pharmaceuticals, Inc., priority 2013, published 2017)

Legend:
[1] = tested on: BT474-M3 breast cancer tumor cells; conditions: cyclophosphamide 170 mg/kg pre-dose
Protocol: NCR/nu mice are inoculated with 15×10^6 BT474-M3 cells (into the mammary fat pad, in 50 μl media), 20×10^6 MDA-MB-453 (s.c. into the right flank of the mouse in 100 μl of media) or 10×10^6 MCF-7 HER2 cells (into the mammary fat pad, in 50 μl media). […] When tumors reached an average volume of 200-300 mm^3, mice are pre-dosed or not with cyclophosphamide (i.p. 170 mg/kg) at different time points as indicated. Mice are subsequently dosed with DiI5-labeled anthracycline-loaded anti-HER2 immunoliposome-targeted liposomal doxorubicin (3 mg/kg), DiI5-labelled liposomal doxorubicin PLD (3 mg/kg), or free doxorubicin all at (3 mg/kg). […]
Tumor, heart and the dorsal skin are collected and frozen at −80° for further HPLC doxorubicin quantification.
Tumors, hearts and dorsal skin are weighed and minced. […] Supernatants and doxorubicin standards are analyzed by HPLC (Dionex) using a C18 reverse phase column (Synergi Polar-RP 80A 250×4.60 mm 4 μm column). […] The doxorubicin peak is detected at 6.9 min using an in-line fluorescence detector excited at 485 nm, and emitting at 590 nm. The extraction efficiency of doxorubicin from tumor, heart and skin tissues is estimated using internal control tissues spiked with known amounts of doxorubicin, and sample readings are corrected to account for the extraction efficiency. […]

[2] = 96 hours after cyclophosphamide treatment

Protocol for BT474-M3 tumor: Slides are air-dried and mounted with ProLong® Gold with Hoechst® stain to counterstain nuclei. Cleaved caspase 3, γ-H2AX, cleaved PARP and cytokeratin stainings are performed on FFPE-sections (5 μm thick). After deparaffinization and rehydration, heat-mediated antigen retrieval is performed on a in a pre-treatment module (Thermo Scientific, Waltham, Mass.) in citrate buffer (pH 6) for 25 min at 102° C. After antigen retrieval, slides are stained on a Lab Vision Autostainer® 360 (Thermo Scientific). Endogenous peroxidase activity is blocked with Peroxidazed® 1 (10 min at RT) followed by a washing step with TBST and a protein blocking step with Background Sniper (10 min at RT). Next, slides are incubated with the primary antibodies diluted in Da Vinci Green or Signal Stain® Antibody diluent for 1 hr at room temperature (RT). After washing, slides are incubated with secondary antibodies for 30 min at RT Antibodies used are goat anti-mouse Alexa Fluor® 488 and goat anti-rabbit Alexa Fluor® 647, diluted in Da Vinci Green, for the γ-H2AX and cleaved caspase 3 antibodies, respectively; and EnVision®+ System-HRP labeled Polymer anti-rabbit (for the signal amplification of the cleaved PARP signal) containing the secondary antibody for cytokeratin (goat anti-mouse Alexa Fluor® 555) for the cleaved PARP and cytokeratin double staining. After washing, for the signal amplification of cleaved PARP, samples are incubated with TSA™ Cyanine 5 Tyramide Reagent for 10 min at RT. Slides are washed and counterstained with Hoechst followed by a wash step and mounting with ProLong® Gold. Slides are imaged on an Aperio® FL slide scanner at 20× magnification.
Images are analyzed using rulesets written in Definiens® Developer XD 2 (Definiens, Munich, Germany). Images are analyzed as full tumor or heart tissues. […]
The extent of cleaved PARP positive tumor cells is determined in cleaved PARP and cytokeratin double stained tumor sections. […]

O.O=P1(N(CCCl)CCCl)NCCCO1 (stereo not shown) [cyclophosphamide, 2-[bis(2-chloroethyl)amino]tetrahydro-2H-1,3,2-oxazaphosphorine 2-oxide monohydrate]
effect of cyclophosphamide on non-target organs such as skin or heart [1]: no effects were observed | effect on non-tumor cells (BT474-M3 tumor; [2]): non-tumor cells were unaffected | interstitial space vs control (BT474-M3 tumor; [2]): significantly more interstitial space than the control cell sample | tumor cell apoptosis, tumor cell density and interstitial space (BT474-M3 tumor; tissue harvested 48 hr-120 hr post cyclophosphamide): induction of tumor cell apoptosis and consequent reduction of tumor cell density and increase in interstitial space
